The subject of series [1] is MRC5 cells. The series is described as follows: Cell viability assay in MRC5 cells (MTT).
Series [2] in a line: PAMPA permeability assay. The class given is in vitro ADME. As to conditions: PAMPA; for recovery at 5 hr, 10 μM: pH 7, PAMPA, donor and acceptor compartments; for Papp at 5 h, 10 μM: pH 7, pH 7, 10 μM.

Consider `COC(=O)c1cc2c(cc1C)/C(=C(/Nc1ccc(C(=O)N(C)OCCN3CCN[C@H](C)C3)cc1)c1ccccc1)C(=O)N2` [Example 65], for which, in series [1], the “Cell viability at 100 nM (%)” value was 118.6%, the “Cell viability at 300 nM (%)” value is given as 110.3% and the “Cell viability at 1000 nM (%)” value was 70.5%.

In series [2], `COC(=O)c1cc2c(cc1C)/C(=C(/Nc1ccc(C(=O)NOCCN3CCN(C)CC3)c(C)c1)c1ccccc1)C(=O)N2` [Example 28] registered a recovery at 5 hr, 10 μM of 69% and an apparent permeability coefficient (Papp) at 5 h, 10 μM of 0.00407 ×10⁻⁶ cm/s. In series [1], the “Cell viability at 100 nM (%)” value came out at 110.2%, the “Cell viability at 300 nM (%)” value amounted to 117% and the “Cell viability at 1000 nM (%)” value was determined as 104.8%.

For the compound `COC(=O)c1cc2c(cc1C)/C(=C(/Nc1ccc(C(=O)N(C)OCCN3CCN[C@@H](C)C3)cc1)c1ccccc1)C(=O)N2` [Example 62], in series [2], the recovery at 5 hr, 10 μM came out at 72.8% and the apparent permeability (Papp) at 5 h, 10 μM was 0.00628 ×10⁻⁶ cm/s. Moreover, in series [1], the “Cell viability at 100 nM (%)” value came out at 80.7%, the “Cell viability at 300 nM (%)” value amounted to 73.8% and the “Cell viability at 1000 nM (%)” value is recorded as −0.2%.

Regarding `CNC(=O)CN1CCN(CCONC(=O)c2ccc(N/C(=C3\C(=O)Nc4cc(C(=O)OC)c(C)cc43)c3ccccc3)cc2)CC1` [Example 73], in series [1], the “Cell viability at 100 nM (%)” value stood at 82.9%, the “Cell viability at 300 nM (%)” value worked out at 104% and the “Cell viability at 1000 nM (%)” value came to 96.8%.

In series [2], `COC(=O)c1cc2c(cc1C)/C(=C(/Nc1ccc(S(=O)(=O)NOCCN(C)C)cc1)c1ccccc1)C(=O)N2` [Example 48] gave a recovery at 5 hr, 10 μM of 67.4% and a Papp at 5 h, 10 μM of 0.22 ×10⁻⁶ cm/s. In series [1], the “Cell viability at 100 nM (%)” value amounted to 132.6%, the “Cell viability at 300 nM (%)” value amounted to 121% and the “Cell viability at 1000 nM (%)” value is recorded as 103.5%.

In series [2], `COC(=O)c1cc2c(cc1C)/C(=C(/Nc1ccc(C(=O)NOCCCN3CCC(OC)CC3)cc1)c1ccccc1)C(=O)N2` [Example 55] came in with a recovery at 5 hr, 10 μM of 59.1% and a Papp at 5 h, 10 μM of 0.154 ×10⁻⁶ cm/s. In series [1], the “Cell viability at 100 nM (%)” value is recorded as 106.7%, the “Cell viability at 300 nM (%)” value was 111.1% and the “Cell viability at 1000 nM (%)” value was found to be 92.3%.

Take `COC(=O)c1cc2c(cc1C)/C(=C(/Nc1ccc(C(=O)NOCCN(C)C)cc1)c1ccccc1)C(=O)N2` [Example 26]: in series [2], the recovery at 5 hr, 10 μM came to 40.2% and the apparent permeability coefficient (Papp) at 5 h, 10 μM is 0.0156 ×10⁻⁶ cm/s. Besides, in series [1], the “Cell viability at 100 nM (%)” value is reported as 111.8%, the “Cell viability at 300 nM (%)” value was 111.4% and the “Cell viability at 1000 nM (%)” value was found to be 88%.

Usually Papp stands for the rate of passage across a membrane or cell layer, normalised by area and donor concentration. Low values mean poor permeation, high ones ready permeation.

The record behind these values is patent US11046672B2, “Indolinones compounds and their use in the treatment of fibrotic diseases” (RESPIVERT LIMITED, priority 2015, dated 2021).
